Experimental data: patent US7872018B2, “Compounds and methods for kinase modulation, and indications therefor” (Plexxikon, Inc., priority 2006, dated 2011)

What was measured:
Fms = target: T1, Fms (Homo sapiens, UniProt P07333); experiment: Fms biochemical assay (AlphaScreen or 33P-ATP); conditions: under the test conditions employed; read-out: IC50 toward kinase Fms
T1 construct: purchased Upstate Biotech 14-551
Description: Each sample was at 5% DMSO.

TrkA = target: T2, TrkA (Homo sapiens, UniProt P04629); experiment: TrkA biochemical assay (AlphaScreen); conditions: under the test conditions employed; read-out: IC50 toward kinase TrkA
T2 construct: purchased Upstate Biotech 14-571
T2 sequence (P04629 33-796): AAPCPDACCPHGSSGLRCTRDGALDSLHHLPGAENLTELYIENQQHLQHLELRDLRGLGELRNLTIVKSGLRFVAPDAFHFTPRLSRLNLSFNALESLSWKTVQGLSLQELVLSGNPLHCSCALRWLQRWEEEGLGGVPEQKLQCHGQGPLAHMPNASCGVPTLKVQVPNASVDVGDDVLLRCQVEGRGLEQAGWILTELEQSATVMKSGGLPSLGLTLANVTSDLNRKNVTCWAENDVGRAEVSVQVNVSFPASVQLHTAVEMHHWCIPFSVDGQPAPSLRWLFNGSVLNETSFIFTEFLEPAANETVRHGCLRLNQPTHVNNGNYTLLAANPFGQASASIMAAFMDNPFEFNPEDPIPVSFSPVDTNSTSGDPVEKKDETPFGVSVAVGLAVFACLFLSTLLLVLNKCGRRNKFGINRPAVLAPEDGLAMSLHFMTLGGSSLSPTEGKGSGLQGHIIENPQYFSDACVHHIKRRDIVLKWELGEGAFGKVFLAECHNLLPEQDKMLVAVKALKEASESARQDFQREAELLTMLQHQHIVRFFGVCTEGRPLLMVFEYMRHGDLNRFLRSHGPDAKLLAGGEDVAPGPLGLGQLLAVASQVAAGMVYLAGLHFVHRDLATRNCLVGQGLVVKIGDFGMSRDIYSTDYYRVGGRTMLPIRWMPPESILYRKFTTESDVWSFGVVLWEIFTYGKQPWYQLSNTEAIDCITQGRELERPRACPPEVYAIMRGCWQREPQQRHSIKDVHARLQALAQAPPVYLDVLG
Procedure: Compounds tested were dissolved in DMSO (1 μL) and added to a white 384-well plate (Costar #3705). […] Each sample was at 5% DMSO. The plate was then incubated for 40 minutes at room temperature.

HGK = HGK (Homo sapiens, UniProt O95819); experiment: HGK (MAP4K4) biochemical assay (AlphaScreen); conditions: under the test conditions employed; read-out: IC50 toward kinase HGK
Chain of HGK (O95819 whole entry): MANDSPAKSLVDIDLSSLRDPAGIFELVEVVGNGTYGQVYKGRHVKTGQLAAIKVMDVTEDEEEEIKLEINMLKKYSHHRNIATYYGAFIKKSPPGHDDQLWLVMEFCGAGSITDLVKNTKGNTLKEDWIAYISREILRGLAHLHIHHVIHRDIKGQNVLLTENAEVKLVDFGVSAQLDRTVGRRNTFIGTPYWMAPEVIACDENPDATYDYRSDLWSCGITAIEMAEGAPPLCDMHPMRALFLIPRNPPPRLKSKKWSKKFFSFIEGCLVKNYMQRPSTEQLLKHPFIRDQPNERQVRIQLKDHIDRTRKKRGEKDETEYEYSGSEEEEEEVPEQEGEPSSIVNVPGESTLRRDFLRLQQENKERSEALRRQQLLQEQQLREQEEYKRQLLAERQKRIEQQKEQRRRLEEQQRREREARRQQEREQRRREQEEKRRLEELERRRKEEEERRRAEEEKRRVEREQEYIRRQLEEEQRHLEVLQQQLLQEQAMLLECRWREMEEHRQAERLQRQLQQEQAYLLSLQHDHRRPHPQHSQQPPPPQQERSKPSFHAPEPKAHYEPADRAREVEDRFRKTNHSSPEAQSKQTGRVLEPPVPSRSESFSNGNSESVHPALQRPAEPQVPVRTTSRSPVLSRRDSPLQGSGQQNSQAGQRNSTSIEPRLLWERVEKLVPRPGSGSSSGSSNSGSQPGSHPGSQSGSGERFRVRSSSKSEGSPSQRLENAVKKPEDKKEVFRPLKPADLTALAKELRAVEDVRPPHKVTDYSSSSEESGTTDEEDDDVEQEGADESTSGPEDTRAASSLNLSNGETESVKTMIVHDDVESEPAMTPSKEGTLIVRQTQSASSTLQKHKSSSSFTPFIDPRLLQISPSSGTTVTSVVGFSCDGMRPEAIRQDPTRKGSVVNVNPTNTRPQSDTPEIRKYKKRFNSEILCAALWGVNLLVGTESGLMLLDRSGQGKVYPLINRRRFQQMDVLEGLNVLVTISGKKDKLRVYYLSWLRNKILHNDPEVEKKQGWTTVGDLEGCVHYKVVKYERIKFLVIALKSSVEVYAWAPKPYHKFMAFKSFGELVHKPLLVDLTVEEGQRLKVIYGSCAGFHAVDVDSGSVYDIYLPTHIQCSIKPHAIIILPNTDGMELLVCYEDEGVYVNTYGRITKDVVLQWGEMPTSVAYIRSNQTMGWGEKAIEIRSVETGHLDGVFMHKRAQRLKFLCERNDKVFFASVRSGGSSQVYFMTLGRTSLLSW
Procedure: Substrate was 10 nM biotin-ERM (T567/T564/T558, Cell Signaling, Inc., cat#1344). MAP4K4 kinase was at 0.5 ng per sample. After incubation of the kinase reaction for 40 min at room temperature, 5 μl of donor beads and protein A acceptor beads (Perkin Elmer Life Science, cat#67606017) at final concentration 1 μg/ml in stop buffer (20 mM Tris, pH 7.4, 200 mM Nacl, 100 mM EDTA, 0.03% BSA) was added, along with Phospho-ERM Antibody (T567/T564/T558, Cell Signaling, Inc., cat#3141) at 1:1000 dilution. […] Phosphorylated substrate results in binding of the antibody which binds to protein A acceptor bead and association of the donor and acceptor beads is such that the signal correlates with kinase activity.

Kit = target: T3, Kit (Homo sapiens, UniProt P10721); experiment: c-kit biochemical assay (AlphaScreen or 33P-ATP); conditions: under the test conditions employed; read-out: IC50 toward kinase Kit
T3 construct: P1332.N6 BI PTP KIT M552-K948-X COD; made in house; host or cells: E. coli BL21(DE3)RIL, co-expressed with PTP1B
T3 sequence (P10721 552-948): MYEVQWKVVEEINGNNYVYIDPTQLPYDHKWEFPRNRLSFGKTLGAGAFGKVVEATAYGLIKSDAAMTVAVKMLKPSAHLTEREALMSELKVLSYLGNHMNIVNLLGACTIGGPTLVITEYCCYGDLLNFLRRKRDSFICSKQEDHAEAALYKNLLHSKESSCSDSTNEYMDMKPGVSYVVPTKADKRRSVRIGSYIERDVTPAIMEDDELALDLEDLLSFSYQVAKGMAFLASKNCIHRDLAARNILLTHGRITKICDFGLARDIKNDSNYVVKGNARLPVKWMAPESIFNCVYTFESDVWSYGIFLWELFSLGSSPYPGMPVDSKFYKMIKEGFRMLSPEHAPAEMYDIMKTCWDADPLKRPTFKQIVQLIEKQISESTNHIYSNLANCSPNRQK
Procedure: C-kit kinase was at 1 ng per sample.
The c-kit enzyme used in the above assay was either obtained from Cell Signaling Technology (Cat. #7754) or was prepared as follows: A plasmid encoding kit (DNA and encoded protein sequences shown below) was engineered using common polymerase chain reaction (PCR) methods. Complementary DNA cloned from various human tissues were purchased from Invitrogen, and these were used as substrates in the PCR reactions. Specific custom synthetic oligonucleotide primers were designed to initiate the PCR product, and also to provide the appropriate restriction enzyme cleavage sites for ligation with the plasmids. The entire sequence encoding the enzyme was made through a gene synthesis procedure, using custom synthetic oligonucleotides covering the entire coding sequence (Invitrogen, see below).

T1 sequence (P07333 20-972): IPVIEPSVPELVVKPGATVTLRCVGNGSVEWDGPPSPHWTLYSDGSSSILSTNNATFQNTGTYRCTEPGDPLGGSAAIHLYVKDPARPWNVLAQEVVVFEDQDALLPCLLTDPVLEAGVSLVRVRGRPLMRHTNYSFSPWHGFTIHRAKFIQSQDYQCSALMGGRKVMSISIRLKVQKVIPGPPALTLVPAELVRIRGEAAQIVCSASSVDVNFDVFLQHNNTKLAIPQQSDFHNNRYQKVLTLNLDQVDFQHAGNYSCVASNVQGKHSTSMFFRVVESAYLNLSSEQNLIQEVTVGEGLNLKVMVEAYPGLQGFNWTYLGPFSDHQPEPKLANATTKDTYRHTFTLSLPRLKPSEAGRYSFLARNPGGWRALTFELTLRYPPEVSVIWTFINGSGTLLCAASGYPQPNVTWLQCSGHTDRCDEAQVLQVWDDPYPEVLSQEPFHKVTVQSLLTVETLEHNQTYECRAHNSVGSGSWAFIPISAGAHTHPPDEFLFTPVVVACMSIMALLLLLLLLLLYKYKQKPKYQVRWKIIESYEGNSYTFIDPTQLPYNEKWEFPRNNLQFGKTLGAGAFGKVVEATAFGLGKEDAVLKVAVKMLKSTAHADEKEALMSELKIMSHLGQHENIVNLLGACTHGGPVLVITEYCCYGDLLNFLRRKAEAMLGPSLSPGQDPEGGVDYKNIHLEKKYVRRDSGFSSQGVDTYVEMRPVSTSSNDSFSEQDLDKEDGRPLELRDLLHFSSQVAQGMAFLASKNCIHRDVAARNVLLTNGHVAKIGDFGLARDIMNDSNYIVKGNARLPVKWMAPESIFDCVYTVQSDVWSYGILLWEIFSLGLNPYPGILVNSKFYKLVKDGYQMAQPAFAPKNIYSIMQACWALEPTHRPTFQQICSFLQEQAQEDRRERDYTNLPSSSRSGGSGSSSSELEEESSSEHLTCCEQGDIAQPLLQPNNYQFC

Compound	IC50 (Fms) [µM]	also measured
Fc1ccc(OCc2ccccc2)c(F)c1Cc1c[nH]c2ncccc12 [P-1803, 3-(3-Benzyloxy-2,6-difluoro-benzyl)-1H-pyrrolo[2,3-b]pyridine]	≤ 10	
COc1cc(Cc2c[nH]c3ncccc23)ccc1OCc1ccc(CN2CCN(C)CC2)cc1 [P-1821, 3-{3-Methoxy-4-[4-(4-methyl-piperazin-1-ylmethyl)-benzyloxy]-benzyl}-1H-pyrrolo[2,3-b]pyridine]	≤ 10	
COc1cc(Cc2c[nH]c3ncccc23)c(F)cc1OCc1ccc(Cl)cc1 [P-1844, 3-[4-(4-Chloro-benzyloxy)-2-fluoro-5-methoxy-benzyl]-1H-pyrrolo[2,3-b]pyridine]		IC50 (TrkA): ≤ 10 µM
COc1cnc2[nH]cc(Cc3cc(OC)c(OCc4ccc(Cl)cc4F)cc3F)c2c1 [P-1885, 3-[4-(4-Chloro-2-fluoro-benzyloxy)-2-fluoro-5-methoxy-benzyl]-5-methoxy-1H-pyrrolo[2,3-b]pyridine]		IC50 (TrkA): ≤ 10 µM
COc1cc(Cc2c[nH]c3ncc(Cl)cc23)c(F)cc1OCc1nc2ccccc2[nH]1 [P-1976, 2-[4-(5-Chloro-1H-pyrrolo[2,3-b]pyridin-3-ylmethyl)-5-fluoro-2-methoxy-phenoxymethyl]-1H-benzoimidazole]		IC50 (TrkA): ≤ 10 µM
COc1cc(Cc2c[nH]c3ncccc23)c(F)cc1OCc1nc2ccccc2[nH]1 [P-1978, 2-[5-Fluoro-2-methoxy-4-(1H-pyrrolo[2,3-b]pyridin-3-ylmethyl)-phenoxymethyl]-1H-benzoimidazole]		IC50 (TrkA): ≤ 10 µM
COc1cc(Cc2c[nH]c3ncccc23)c(F)cc1OCc1cccnc1 [P-2038, 3-[2-Fluoro-5-methoxy-4-(pyridin-3-ylmethoxy)-benzyl]-1H-pyrrolo[2,3-b]pyridine]		IC50 (TrkA): ≤ 10 µM
Fc1cc(OCc2nc3ccccc3[nH]2)cc(F)c1Cc1c[nH]c2ncccc12 [P-2102, 2-[3,5-Difluoro-4-(1H-pyrrolo[2,3-b]pyridin-3-ylmethyl)-phenoxymethyl]-1H-benzoimidazole]	≤ 10	IC50 (HGK): ≤ 10 µM
COc1ccc2[nH]c(COc3cc(F)c(Cc4c[nH]c5ncccc45)cc3OC)nc2c1 [P-2113, 2-[5-Fluoro-2-methoxy-4-(1H-pyrrolo[2,3-b]pyridin-3-ylmethyl)-phenoxymethyl]-6-methoxy-1H-benzoimidazole]	≤ 10	IC50 (HGK): ≤ 10 µM
O=C(c1cccc(OCc2ccc(Cl)cc2)c1OCCF)c1c[nH]c2ncccc12 [P-2118, [3-(4-Chloro-benzyloxy)-2-(2-fluoro-ethoxy)-phenyl]-(1H-pyrrolo[2,3-b]pyridin-3-yl)-methanone]	≤ 10	
O=C(c1cccc(OCc2ccc(Cl)cc2F)c1OCC(F)F)c1c[nH]c2ncccc12 [P-2119, [3-(4-Chloro-2-fluoro-benzyloxy)-2-(2,2-difluoro-ethoxy)-phenyl]-(1H-pyrrolo[2,3-b]pyridin-3-yl)-methanone]	≤ 10	
O=C(c1cccc(OCc2ccc(Cl)cc2F)c1OCC1CC1)c1c[nH]c2ncccc12 [P-2120]	≤ 10	IC50 (Kit): ≤ 10 µM
CCOc1c(OCc2cccc(C)n2)cccc1C(=O)c1c[nH]c2ncccc12 [P-2122, [2-Ethoxy-3-(6-methyl-pyridin-2-ylmethoxy)-phenyl]-(1H-pyrrolo[2,3-b]pyridin-3-yl)-methanone]	≤ 10	
CCOc1c(OCc2ccc(Cl)cc2F)cccc1C(=O)c1c[nH]c2ncccc12 [P-2123, [3-(4-Chloro-2-fluoro-benzyloxy)-2-ethoxy-phenyl]-(1H-pyrrolo[2,3-b]pyridin-3-yl)-methanone]	≤ 10	
CCOc1c(OCc2sc(C)nc2C)cccc1C(=O)c1c[nH]c2ncccc12 [P-2124, [3-(2,4-Dimethyl-thiazol-5-ylmethoxy)-2-ethoxy-phenyl]-(1H-pyrrolo[2,3-b]pyridin-3-yl)-methanone]	≤ 10	
CCOc1c(OCc2cc(C)nn2C)cccc1C(=O)c1c[nH]c2ncccc12 [P-2125, [3-(2,5-Dimethyl-2H-pyrazol-3-ylmethoxy)-2-ethoxy-phenyl]-(1H-pyrrolo[2,3-b]pyridin-3-yl)-methanone]	≤ 10	
CCOc1c(OCCCN2CCOCC2)cccc1C(=O)c1c[nH]c2ncccc12 [P-2126, [2-Ethoxy-3-(3-morpholin-4-yl-propoxy)-phenyl]-(1H-pyrrolo[2,3-b]pyridin-3-yl)-methanone]	≤ 10	

Compound	IC50 (Fms) [µM]	also measured
CCOc1c(OCc2ccccc2F)cccc1C(=O)c1c[nH]c2ncccc12 [P-2127, [2-Ethoxy-3-(2-fluoro-benzyloxy)-phenyl]-(1H-pyrrolo[2,3-b]pyridin-3-yl)-methanone]	≤ 10	
CCOc1c(OCc2ccc(N3CCOCC3)nc2)cccc1C(=O)c1c[nH]c2ncccc12 [P-2128, [2-Ethoxy-3-(6-morpholin-4-yl-pyridin-3-ylmethoxy)-phenyl]-(1H-pyrrolo[2,3-b]pyridin-3-yl)-methanone]	≤ 10	
CCOc1c(OCc2ccc(C(F)(F)F)nc2)cccc1C(=O)c1c[nH]c2ncccc12 [P-2129, [2-Ethoxy-3-(6-trifluoromethyl-pyridin-3-ylmethoxy)-phenyl]-(1H-pyrrolo[2,3-b]pyridin-3-yl)-methanone]	≤ 10	
CCOc1c(OCc2ccc(Cl)cc2Cl)cccc1C(=O)c1c[nH]c2ncccc12 [P-2130, [3-(2,4-Dichloro-benzyloxy)-2-ethoxy-phenyl]-(1-pyrrolo[2,3-b]pyridin-3-yl)-methanone]	≤ 10	IC50 (Kit): ≤ 10 µM
CCOc1c(OCc2ccc(-n3ccnc3)cc2)cccc1C(=O)c1c[nH]c2ncccc12 [P-2131, [2-Ethoxy-3-(4-imidazol-1-yl-benzyloxy)-phenyl]-(1H-pyrrolo[2,3-b]pyridin-3-yl)-methanone]	≤ 10	
CCOc1c(OCc2ccc(F)cc2F)cccc1C(=O)c1c[nH]c2ncccc12 [P-2132, [3-(2,4-Difluoro-benzyloxy)-2-ethoxy-phenyl]-(1H-pyrrolo[2,3-b]pyridin-3-yl)-methanone]	≤ 10	
CCOc1c(OC(C)c2ccccc2F)cccc1C(=O)c1c[nH]c2ncccc12 (stereo not shown) [P-2133, {2-Ethoxy-3-[1-(2-fluoro-phenyl)-ethoxy]-phenyl}-(1H-pyrrolo[2,3-b]pyridin-3-yl)-methanone]	≤ 10	
CCOc1c(OCc2cc(C)n(C)n2)cccc1C(=O)c1c[nH]c2ncccc12 [P-2134, [3-(1,5-Dimethyl-1H-pyrazol-3-ylmethoxy)-2-ethoxy-phenyl]-(1H-pyrrolo[2,3-b]pyridin-3-yl)-methanone]	≤ 10	
CCOc1c(OC(C)c2ccncc2)cccc1C(=O)c1c[nH]c2ncccc12 (stereo not shown) [P-2135, [2-Ethoxy-3-(1-pyridin-4-yl-ethoxy)-phenyl]-(1H-pyrrolo[2,3-b]pyridin-3-yl)-methanone]	≤ 10	
CCOc1c(OCc2c(F)cc(F)cc2F)cccc1C(=O)c1c[nH]c2ncccc12 [P-2137, [2-Ethoxy-3-(2,4,6-trifluoro-benzyloxy)-phenyl]-(1H-pyrrolo[2,3-b]pyridin-3-yl)-methanone]	≤ 10	IC50 (Kit): ≤ 10 µM
CCOc1c(OC(C)c2ccc(Cl)cc2Cl)cccc1C(=O)c1c[nH]c2ncccc12 (stereo not shown) [P-2138, {3-[1-(2,4-Dichloro-phenyl)-ethoxy]-2-ethoxy-phenyl}-(1H-pyrrolo[2,3-b]pyridin-3-yl)-methanone]	≤ 10	
O=C(c1cccc(OCc2ccc(Cl)cc2F)c1OCC(F)(F)F)c1c[nH]c2ncccc12 [P-2139, [3-(4-Chloro-2-fluoro-benzyloxy)-2-(2,2,2-trifluoro-ethoxy)-phenyl]-(1H-pyrrolo[2,3-b]pyridin-3-yl)-methanone]	≤ 10	IC50 (Kit): ≤ 10 µM
O=C(c1cccc(OCc2c(F)cc(F)cc2F)c1OCC1CC1)c1c[nH]c2ncc(Cl)cc12 [P-2141, (5-Chloro-1H-pyrrolo[2,3-b]pyridin-3-yl)-[2-cyclopropylmethoxy-3-(2,4,6-trifluoro-benzyloxy)-phenyl]-methanone]	≤ 10	
Fc1ccc(OCC(F)(F)F)c(Cl)c1Cc1c[nH]c2ncccc12 [P-2148, 3-[2-Chloro-6-fluoro-3-(2,2,2-trifluoro-ethoxy)-benzyl]-1H-pyrrolo[2,3-b]pyridine]	≤ 10	IC50 (Kit): ≤ 10 µM
COc1cc(Cc2c[nH]c3ncc(Cl)cc23)c(F)cc1OCc1nc2cc(F)ccc2[nH]1 [P-2179, 2-[4-(5-Chloro-1H-pyrrolo[2,3-b]pyridin-3-ylmethyl)-5-fluoro-2-methoxy-phenoxymethyl]-5-fluoro-1H-benzoimidazole]	≤ 10	IC50 (TrkA): ≤ 10 µM
COc1cc(Cc2c[nH]c3ncc(C)cc23)c(F)cc1OCc1nc2cc(Cl)ccc2[nH]1 [P-2184, 5-Chloro-2-[5-fluoro-2-methoxy-4-(5-methyl-1H-pyrrolo[2,3-b]pyridin-3-ylmethyl)-phenoxymethyl]-1H-benzoimidazole]	≤ 10	IC50 (Kit): ≤ 10 µM; IC50 (HGK): ≤ 10 µM
